Measurements reported in publication PMC11123921, “Synthesis and Evaluation of 5-(Heteroarylmethylene)hydantoins as Glycogen Synthase Kinase-3β Inhibitors” (Pharmaceuticals, 2024).
Where a name gives a salt, the structure may show the parent alone. Read-outs that look alike come from different tables or passages of the source.

Assays:
[1] = molecular target: human matrix metalloproteinase-12 (Homo sapiens, UniProt P39900); assay: Matrix metalloproteinase-12 fluorogenic substrate assay; format: biochemical; conditions: for activity at 25 µM: 25 μM compound, read-out: MMP-12 % Activity @ 25 μM; for activity at 200 µM: 200 μM compound, read-out: MMP-12 % Activity @ 200 μM
Experimental: (§1) 5-(Heteroarylmethylene)hydantoins were evaluated as inhibitors for MMP-12 at fixed concentrations of 200 and 25 μM (Table 1). At 200 μM of 20–24, the activity of MMP-12 was ≤50% the activity of positive control; for compounds 21, 24, and 25 at 25 μM, the activity of MMP12 was 69–74% while the activity for the others was >80%. […] A select subset of the 5-(heteroarylmethylene)hydantoins were evaluated as inhibitors of human carbonic anhydrase II (hCAII) at 200 μM (Table 1). […] Finally, this same subset of 5-(heteroarylmethylene)hydantoins were evaluated as inhibitors of isolated S. aureus pyruvate carboxylase (SaPC) in a fixed-time assay (Table 1). No inhibitory activity was observed up to 1000 μM.
Assays for human matrix metalloproteinase-12 activity were performed in a 96-well plate format for a total reaction volume of 100 μL, in an assay modified from Day and Cohen. All assay reagents were prepared and maintained at 22 °C until warmed to 37 °C. The omniMMP fluorogenic substrate and MMP-12 enzyme were prepared in assay buffer (50 mM HEPES, 10 mM CaCl2, 0.05% Brij-35, pH of 7.52), and small molecule effectors were prepared as a solution in 50% DMSO, 50% assay buffer. The final concentration of enzyme in the 100 μL enzymatic reaction was 0.0083 U/μL. A known inhibitor, N-[(4’-bromo [1,1’-biphenyl]-4-yl)sulfonyl]-L-valine (PD166793), was included where noted at a final concentration of 100 μM. OmniMMP fluorogenic substrate was added to the 100 μL enzymatic reaction at a final concentration of 4 μM. For all experiments, 30 μL of enzyme stock solution was added to each well in a 96-well, flat-bottom, black polystyrene microplate (SantaCruz Biotechnology, Dallas, TX, USA), followed by the addition of 10 μL of the effectors (50% assay buffer, 50% DMSO for the uninhibited reaction, PD166793 for the inhibition). The 96-well plate was then incubated in a plate reader at 37 °C for 30 min; concurrently, the substrate solution was also warmed to 37 °C for 30 min. The enzymatic reaction was initiated by adding 60 μL of the omniMMP fluorogenic substrate solution. The change in fluorescence was then monitored for 30 min with excitation and emission wavelengths at 320 and 400 nm, respectively, every 46 s for a total of 40 measurements.

[2] = molecular target: human carbonic anhydrase II (hCAII) (Homo sapiens, UniProt P00918); assay: Human carbonic anhydrase II p-nitrophenyl acetate assay; format: biochemical; conditions: 200 μM compound
Experimental: as §1
Assays for human carbonic anhydrase II activity were performed in a 96-well plate format for a total reaction volume of 100 μL, in an assay modified from Day and Cohen. All assay reagents and solutions were prepared separately and maintained at 22 °C until warmed to 30 °C. All substrates, effectors, and enzyme were freshly dissolved and diluted in assay buffer containing 50 mM Tris (pH 8.0). The final concentration of the human carbonic anhydrase II enzyme was 200 nM. Where noted, acetazolamide was included at a final concentration of 10 μM. The substrate, p-nitrophenyl acetate, was added at a final concentration of 504 μM. For all experiments, 20 μL of enzyme stock solution was added to each well in a 96-well, flat-bottom, polystyrene microplate (Santa Cruz Biotechnology, Dallas, TX, USA), followed by the addition of 10 μL of the effectors (assay buffer for the uninhibited reaction, acetazolamide for the inhibition). The 96-well plate was then incubated in a plate reader at 30 °C for 10 min; concurrently, the substrate solution was also warmed to 30 °C for 10 min. The enzymatic reaction was initiated by adding 70 μL of the substrate solution (p-nitrophenyl acetate). The absorbance values were then measured at 405 nm every 30 s over a period of 20 min for a total of 40 measurements.

[3] = molecular target: T1, Staphylococcus aureus pyruvate carboxylase (SaPC) (Staphylococcus aureus, UniProt A0A0H3JRU9); assay: biochemical; conditions: isolated SaPC
T1 sequence (A0A0H3JRU9 1-1150): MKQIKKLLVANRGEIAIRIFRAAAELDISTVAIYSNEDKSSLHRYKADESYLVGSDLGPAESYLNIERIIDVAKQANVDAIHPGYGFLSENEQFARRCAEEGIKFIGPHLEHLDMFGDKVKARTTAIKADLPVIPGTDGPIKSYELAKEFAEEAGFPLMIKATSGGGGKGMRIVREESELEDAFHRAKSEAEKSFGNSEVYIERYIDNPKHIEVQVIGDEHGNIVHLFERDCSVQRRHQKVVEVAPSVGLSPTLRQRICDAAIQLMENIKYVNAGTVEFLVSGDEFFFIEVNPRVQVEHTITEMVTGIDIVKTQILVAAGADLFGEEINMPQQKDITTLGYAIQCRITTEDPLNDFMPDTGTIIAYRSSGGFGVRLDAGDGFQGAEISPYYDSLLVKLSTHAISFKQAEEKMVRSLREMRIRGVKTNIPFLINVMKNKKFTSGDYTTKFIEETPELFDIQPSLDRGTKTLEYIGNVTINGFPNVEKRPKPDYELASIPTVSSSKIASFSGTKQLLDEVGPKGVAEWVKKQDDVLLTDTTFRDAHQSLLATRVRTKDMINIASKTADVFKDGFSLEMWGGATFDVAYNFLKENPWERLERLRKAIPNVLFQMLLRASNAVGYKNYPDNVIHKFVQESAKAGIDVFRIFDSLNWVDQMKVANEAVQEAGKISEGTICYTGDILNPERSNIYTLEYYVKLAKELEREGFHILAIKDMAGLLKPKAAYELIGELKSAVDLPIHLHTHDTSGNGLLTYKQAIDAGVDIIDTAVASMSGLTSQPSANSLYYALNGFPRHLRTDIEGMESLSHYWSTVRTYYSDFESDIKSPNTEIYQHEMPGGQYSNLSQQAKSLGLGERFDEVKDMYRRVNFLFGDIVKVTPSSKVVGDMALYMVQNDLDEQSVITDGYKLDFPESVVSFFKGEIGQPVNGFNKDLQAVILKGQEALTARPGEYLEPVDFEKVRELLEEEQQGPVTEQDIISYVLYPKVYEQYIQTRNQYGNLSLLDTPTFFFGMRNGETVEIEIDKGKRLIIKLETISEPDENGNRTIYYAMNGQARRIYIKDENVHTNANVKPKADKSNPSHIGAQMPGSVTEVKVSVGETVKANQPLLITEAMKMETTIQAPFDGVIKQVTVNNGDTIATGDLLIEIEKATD

GSK-3β [4] = molecular target: T2, GSK-3β (Homo sapiens, UniProt P49841); assay: GSK-3β kinase HotSpot assay (Reaction Biology); format: biochemical; conditions: 10 μM ATP; for activity at 25 µM: 25 μM compound, duplicate, average, remaining kinase activity vs vehicle; for IC50: 10-point, triplicate, average ± SD
cancer migration = test system: cancer migration; parameters: method as in PMID 20869139; conditions: cited from earlier work
GSK-3β [5] = molecular target: T2, GSK-3β; conditions: cited from earlier work

human matrix metalloproteinase-12, sequence (P39900 106-470): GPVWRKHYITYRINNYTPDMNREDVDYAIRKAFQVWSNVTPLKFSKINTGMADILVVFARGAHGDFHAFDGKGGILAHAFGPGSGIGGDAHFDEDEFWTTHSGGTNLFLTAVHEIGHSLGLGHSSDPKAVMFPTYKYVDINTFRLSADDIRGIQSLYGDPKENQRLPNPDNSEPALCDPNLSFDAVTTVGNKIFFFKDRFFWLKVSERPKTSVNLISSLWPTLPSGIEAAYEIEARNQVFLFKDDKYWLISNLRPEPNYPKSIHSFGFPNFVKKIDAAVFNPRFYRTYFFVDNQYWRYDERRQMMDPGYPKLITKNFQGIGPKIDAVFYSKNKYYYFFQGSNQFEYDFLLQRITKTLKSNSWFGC
T2 sequence (P49841 whole entry): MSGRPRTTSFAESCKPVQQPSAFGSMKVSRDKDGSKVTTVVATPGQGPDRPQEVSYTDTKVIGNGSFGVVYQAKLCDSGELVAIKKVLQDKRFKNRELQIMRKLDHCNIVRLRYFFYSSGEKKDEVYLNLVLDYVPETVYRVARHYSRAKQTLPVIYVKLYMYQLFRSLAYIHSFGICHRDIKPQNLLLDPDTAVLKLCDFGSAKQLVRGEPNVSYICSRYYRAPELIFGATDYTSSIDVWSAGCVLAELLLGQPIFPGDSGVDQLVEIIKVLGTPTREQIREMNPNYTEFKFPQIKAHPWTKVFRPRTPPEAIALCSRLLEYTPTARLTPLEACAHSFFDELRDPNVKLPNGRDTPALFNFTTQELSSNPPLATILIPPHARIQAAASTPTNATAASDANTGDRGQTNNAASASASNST

activity at 25 µM [1]	activity at 200 µM [1]	activity at 200 µM [2]	melting point	IC50 [3]	activity at 25 µM (GSK-3β [4])	IC50 (GSK-3β [4])	hCAII % Activity @ 200 μM ([2]; 200 µM)	Compound	activity as cancer migration inhibitors (cancer migration)	IC50 (GSK-3β [5])
87.5%	74%	82.1 ± 11%	249 to 251 °C	> 1000 µM	17.3%	4.06 ± 0.3 µM	–	COc1cccc(/C=C2\NC(=O)NC2=O)n1 [Compound 15, (Z)-5-[(6′-Methoxy-2-pyridinyl)methylene]-2,4-imidazolidinedione]	–	–
–	–	–	–	–	–	–	–	O=C1NC(=O)/C(=C/c2cccc(-c3cccs3)n2)N1 [Compound 16]	notable activity	–
–	–	–	231 to 233 °C	–	55.4%	–	–	O=C1NC(=O)/C(=C/c2ccccn2)N1 [Compound 17, (Z)-5-[(2′-Pyridinyl)methylene]-2,4-imidazolidinedione]	–	–
94.1%	57.6%	–	> 255 °C	> 1000 µM	32.9%	–	–	O=C1NC(=O)/C(=C/c2ccc3ccccc3n2)N1 [Compound 18, (Z)-5-[(2-Quinolinyl)methylene]-2,4-imidazolidinedione]	–	–
84.2%	50.6%	88.9 ± 12.3%	> 255 °C	> 1000 µM	71.8%	–	–	O=C1NC(=O)/C(=C/c2cccnc2)N1 [Compound 19, (Z)-5-[(3′-Pyridinyl)methylene]-2,4-imidazolidinedione]	–	–
108%	39.6%	–	245 to 248 °C	–	31.6%	–	–	Cc1cccnc1/C=C1\NC(=O)NC1=O [Compound 20, (Z)-5-[(3′-Methyl-2-pyridinyl)methylene]-2,4-imidazolidinedione]	–	–
71.6%	28.5%	94.8 ± 12.8%	–	> 1000 µM	42%	–	–	Cc1ccnc(/C=C2\NC(=O)NC2=O)c1 [Compound 21, (Z)-5-[(4′-Methyl-2-pyridinyl)methylene]-2,4-imidazolidinedione-HCl]	–	–
101%	40.7%	87.4 ± 11.8%	> 250 °C	> 1000 µM	47%	–	–	Cc1ccc(/C=C2\NC(=O)NC2=O)nc1 [Compound 22, (Z)-5-[(5′-Methyl-2-pyridinyl)methylene]-2,4-imidazolidinedione]	–	–
86.4%	46.5%	88.9 ± 12.3%	–	> 1000 µM	28.4%	8.34 ± 0.27 µM	–	Cc1cccc(/C=C2\NC(=O)NC2=O)n1 [Compound 23, (Z)-5-[(6′-Methyl-2-pyridinyl)methylene]-2,4-imidazolidinedione-HCl]	–	–
69.1%	39.2%	91.8 ± 14.7%	–	> 1000 µM	44.6%	–	–	O=C1NC(=O)/C(=C/c2ncccc2Cl)N1 [Compound 24, (Z)-5-[(3′-Chloro-2-pyridinyl)methylene]-2,4-imidazolidinedione-HCl]	–	–
73.9%	50%	57 ± 16.4%	–	> 1000 µM	15.4%	2.14 ± 0.18 µM	–	O=C1NC(=O)/C(=C/c2cc(Cl)ccn2)N1 [Compound 25, (Z)-5-[(4′-Chloro-2-pyridinyl)methylene]-2,4-imidazolidinedione-HCl]	–	–
98.6%	72.9%	–	> 255 °C	–	35.3%	–	–	O=C1NC(=O)/C(=C/c2ccc(Br)cn2)N1 [Compound 26, (Z)-5-[(5′-Bromo-2-pyridinyl)methylene]-2,4-imidazolidinedione]	–	–
85.8%	88.7%	86.7 ± 12.1%	> 250 °C	> 1000 µM	17%	3.39 ± 0.16 µM	–	O=C1NC(=O)/C(=C/c2cccc(Br)n2)N1 [Compound 27, (Z)-5-[(6′-Bromo-2-pyridinyl)methylene]-2,4-imidazolidinedione]	–	–
81.8%	61.6%	–	> 250 °C	–	22.5%	7.82 ± 0.12 µM	–	O=C1NC(=O)/C(=C/c2ccc3ncccc3c2)N1 [Compound 28, (Z)-5-[(6′-Quinolinyl)methylene]-2,4-imidazolidinedione]	–	–
98.1%	88%	63%	> 250 °C	> 1000 µM	27.9%	–	62.7 ± 9.8%	O=C1NC(=O)/C(=C/c2csc3ccccc23)N1 [Compound 29, (Z)-5-[(3-Benzo[b]thiophenyl)methylene]-2,4-imidazolidinedione]	–	–
–	–	–	–	–	–	–	–	indirubin-3-monoxime	–	0.022 µM
